According to patent publication US8946270B2, “Amido-pyridyl ether compounds and compositions and their use against parasites” (Merial Limited, priority 2011, dated 2015):
Read-outs that look alike come from different tables or passages of the source.

Tests used:
[1] = system: Haematobia irritans; experiment: whole plant or invertebrate; settings: 5 μg/cm^2; for mortality at 5 µg/cm2: Haematobia irritans, read-out: Contact SP Horn Fly PCT Mortality (%)
Protocol: A solution of the test compound was used to treat a filter paper contained within a Petri dish and the filter paper was allowed to evaporate to dryness. A small piece of absorbent cotton moistened with 10% sucrose and ten adult flies (Haematobia irritans or Stomoxys calcitrans) were added to each dish. Dishes were capped and held at room temperature. Assessments were performed at 4 and 24 hours after infestation in comparison with untreated controls.

[2] = system: Haemonchus contortus larvae; experiment: Activity against H. contortus, larval development L1 to L3 (LDA); settings: 5 ppm; 4 days
Protocol: Twenty L1 Haemonchus contortus larvae were added to wells of a microtitre plate containing a nutrient medium and the test compound in DMSO. The microtitre plate was then held at 27° C. where the L1 larvae were allowed to develop. […] Larvae exposed to DMSO and no test compound served as controls

[3] = system: microfilaria of Dirofilaria immitis; experiment: Activity against D. immitis microfilaria (Mf); settings: 5 ppm; 5 days
Protocol: Four hundred to six hundred microfilaria of Dirofilaria immitis were added to wells of a microtitre plate containing RPMI media and the test compound in DMSO. The microtitre plate was then held at 37° C. in an environment containing 5% CO2. An assessment was conducted at 5 days to determine survival of the microfilaria. Microfilaria exposed to DMSO and no test compound served as controls.

[4] = system: Rhipicephalus sanguineus (Brown Dog Tick); experiment: whole plant or invertebrate; settings: for mortality at 200 ppm: Rhipicephalus sanguineus, read-out: Contact SP Rhicicep PCT Mortality (%); for Contact SP Rhicicep PCT Mortality (%): 200 ppm
From the text: A solution of the test compound was used to coat the inner wall of glass vials and to treat two filter papers. Once dried, one filter paper was placed in the cap of the vial and the other in the bottom of the vial. Each treated vial was infested with 10 adult Rhipicephalus sanguineus (Brown Dog Tick). […]

CC(C)CNC(=O)c1ccc(CCOc2ccc(OC(F)(F)F)cc2)cn1 [Compound 13]
mortality at 5 µg/cm2 ([1]; timepoint 4 hrs): 60% | mortality at 5 µg/cm2 ([1]; timepoint 24 hrs): 70% | LDA SP H. cont. PCT Mot M [2]: 95%

O=C(NCC1CCOCC1)c1ccc(CCOc2ccc(OC(F)(F)F)cc2)cn1 [Compound 14]
mortality at 5 µg/cm2 ([1]; timepoint 4 hrs): 80% | mortality at 5 µg/cm2 ([1]; timepoint 24 hrs): 100% | LDA SP H. cont. PCT Mot M [2]: 100% | Mf sp D. immitis PCT Motili [3]: 88%

CC(C)CNC(=O)c1ccc(OCc2ccc(OC(F)(F)F)cc2)cn1 [Compound 136]
LDA SP H. cont. PCT Mot M [2]: 89.2655%

CC(C)CNC(=O)c1ccc(CCOc2ccc(C(F)(F)F)cc2)cn1 [Compound 206]
mortality at 200 ppm ([4]; timepoint 4 hrs): 100% | mortality at 200 ppm ([4]; timepoint 24 hrs): 100% | LDA SP H. cont. PCT Mot M [2]: 100%

O=C(NCC1CC1)c1ccc(CCOc2ccc(C(F)(F)F)cc2)cn1 [Compound 207]
Contact SP Horn Fly PCT Mortality (%) ([1]; timepoint 4 hrs): 80% | Contact SP Horn Fly PCT Mortality (%) ([1]; timepoint 24 hrs): 80% | LDA SP H. cont. PCT Mot M [2]: 100%

CCC(C)CNC(=O)c1ccc(CCOc2ccc(C(F)(F)F)cc2)cn1 (stereo not drawn) [Compound 219]
mortality at 200 ppm ([4]; timepoint 4 hrs): 80% | mortality at 200 ppm ([4]; timepoint 24 hrs): 90% | LDA SP H. cont. PCT Mot M [2]: 90%

CC(C)CNC(=O)c1ccc(CCOc2ccc(Cl)c(OC(F)(F)F)c2)cn1 [Compound 223]
Contact SP Rhicicep PCT Mortality (%) ([4]; timepoint 4 hrs): 0% | Contact SP Rhicicep PCT Mortality (%) ([4]; timepoint 24 hrs): 0% | LDA SP H. cont. PCT Mot M [2]: 91%

CC(C)CNC(=O)c1ccc(CCOc2ccc(F)c(F)c2)cn1 [Compound 224]
LDA SP H. cont. PCT Mot M [2]: 98%
